From patent publication US11713335B2, “Aminocoumarin compounds and methods of their use” (President and Fellows of Harvard College, priority 2018, dated 2023)
≈ marks a conversion by molar mass, not a printed value. Where a name gives a salt, the structure may show the parent alone. Read-outs that look alike come from different tables or passages of the source.

Key:
WT E. coli = test: Minimal inhibitory concentration in wild-type E. coli; format: cell-based, Escherichia coli; conditions: wild-type E. coli, 37° C., 16 hours, read-out: MIC (μM) in WT E. coli
Experimental: General Procedure for Determination of Minimal Inhibitory Concentrations
Overnight cultures (5 mL) of bacterial strains were grown in LB media or TSA media (for S. aureus) at 37° C. and with shaking at 220 rpm until saturation. The overnight culture was diluted serially 1:100 (50 μL in 5 mL sterile media) and then 1:100 (250 μL in 25 mL sterile media). The 25 mL of diluted culture was then dispensed to a sterile 96 well plate (Corning #3370). 198 μL of culture were dispensed into row A and 100 μL of this culture were dispensed into rows B-H. Aminocoumarin compound (DMSO stock) were added to the first row and then the row was mixed by pipetting. 100 μL of culture from row A were transferred to row B and the serial dilution continued until the final 100 μL from row H were discarded. The plate was incubated without shaking in a 37° C. for 16 hours and then read by visible light spectrophotometer (Molecular Devices) at 600 nm. The minimal inhibitory concentration (MIC) was determined as the lowest concentration of compound concentration that inhibited the growth of bacteria.

S. aureus RN4220 = test: Minimal inhibitory concentration, S. aureus RN4220; format: cell-based; conditions: 16 hour minimal inhibitory concentration at 37° C., read-out: MIC (μM) S. aureus RN4220
How it was run: (§1)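 Overnight cultures in LB (TSA for S. aureus) at 37 °C, diluted 1:100 twice, then exposed to twofold serial dilutions of compound from DMSO stock. Plates incubated unshaken 16 h at 37 °C and read at OD600. MIC (µM) is the lowest concentration inhibiting growth.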

S. aureus MW2 = test: Minimal inhibitory concentration, S. aureus MW2; format: cell-based; conditions: 16 hour minimal inhibitory concentration at 37° C., read-out: MIC (μM) S. aureus MW2 (MRSA)
How it was run: as §1

E. cloacae 13047 = test: Minimal inhibitory concentration, E. cloacae 13047; format: cell-based; conditions: 16 hour minimal inhibitory concentration at 37° C., read-out: MIC (μM) E. cloacae 13047
How it was run: as §1

A. baumannii 19606 = test: Minimal inhibitory concentration, A. baumannii 19606; format: cell-based; conditions: 16 hour minimal inhibitory concentration at 37° C., read-out: MIC (μM) A. baumannii 19606
How it was run: as §1

K. pneumoniae 700721 = test: Minimal inhibitory concentration, K. pneumoniae 700721; format: cell-based; conditions: 16 hour minimal inhibitory concentration at 37° C., read-out: MIC (μM) K. pneumoniae 700721
How it was run: as §1

E. coli MC4100 = test: Minimal inhibitory concentration, E. coli MC4100; format: cell-based; conditions: 16 hour minimal inhibitory concentration at 37° C., read-out: MIC (μM) E. coli MC4100 ara+
How it was run: as §1

E. coli 25922 = test: Minimal inhibitory concentration, E. coli 25922; format: cell-based; conditions: 16 hour minimal inhibitory concentration at 37° C., read-out: MIC (μM) E. coli 25922
How it was run: as §1

[1] = Staphylococcus aureus, RN4220, 16 h
[2] = Staphylococcus aureus, MRSA, 16 h
[3] = Acinetobacter baumannii, 19606, 16 h

| SMILES | MIC (WT E. coli) [µM] | MIC (S. aureus RN4220) [µM] | MIC (S. aureus MW2) [µM] | MIC (E. cloacae 13047) [µM] | MIC (A. baumannii 19606) [µM] | MIC (K. pneumoniae 700721) [µM] | MIC (E. coli MC4100) [µM] | MIC (E. coli 25922) [µM] | MIC (WT E. coli; Escherichia coli) [µM] | MIC (S. aureus RN4220; [1]) [µM] | MIC (S. aureus MW2; [2]) [µM] | MIC (E. cloacae 13047; Enterobacter cloacae, 13047) [µM] | MIC (A. baumannii 19606; [3]) [µM] | MIC (K. pneumoniae 700721; Klebsiella pneumoniae, 700721) [µM] | MIC (E. coli MC4100; Escherichia coli, MC4100, 16 h) [µM] | MIC (E. coli 25922; Escherichia coli, 25922, 16 h) [µM] |
| --- | --- | --- | --- | --- | --- | --- | --- | --- | --- | --- | --- | --- | --- | --- | --- | --- |
| COC1C(OC(N)=O)C(O)C(Oc2ccc3c(O)c(NC(=O)C4CCCC(C5CCCCC5)C4)c(=O)oc3c2C)OC1(C)C (mixture of isomers) [Compound 63] | 300 | 10 | 5 | >100 | >50 | >100 | >200 | >200 |  |  |  |  |  |  |  |  |
| CO[C@@H]1[C@@H](OC(N)=O)[C@@H](O)[C@H](Oc2ccc3c(O)c(NC(=O)c4cccc(-c5ccccc5)c4)c(=O)oc3c2C)OC1(C)C [Compound 1] |  |  |  |  |  |  |  |  | 26 (≈ 15.7 µg/mL) | 5 (≈ 3.02 µg/mL) | 5 (≈ 3.02 µg/mL) | > 100 | > 50 | > 100 | 26 (≈ 15.7 µg/mL) | 41 (≈ 24.8 µg/mL) |
| CO[C@@H]1[C@@H](OC(N)=O)[C@@H](O)[C@H](Oc2ccc3c(O)c(NC(=O)c4ccc(-c5ccccc5)cc4)c(=O)oc3c2C)OC1(C)C [Compound 2] |  |  |  |  |  |  |  |  | > 300 | 21 (≈ 12.7 µg/mL) | 21 (≈ 12.7 µg/mL) | > 100 | > 50 | > 100 | > 200 | > 200 |
| CO[C@@H]1[C@@H](OC(N)=O)[C@@H](O)[C@H](Oc2ccc3c(O)c(NC(=O)Nc4cccc(-c5ccccc5)c4)c(=O)oc3c2C)OC1(C)C [Compound 3] |  |  |  |  |  |  |  |  | > 300 | 81 (≈ 50.2 µg/mL) | 81 (≈ 50.2 µg/mL) | > 100 | > 50 | > 100 | > 200 | > 200 |
| CO[C@@H]1[C@@H](OC(N)=O)[C@@H](O)[C@H](Oc2ccc3c(O)c(NC(=O)c4ccc5ccccc5c4)c(=O)oc3c2C)OC1(C)C [Compound 4] |  |  |  |  |  |  |  |  | > 300 | 22 (≈ 12.7 µg/mL) | 22 (≈ 12.7 µg/mL) | > 100 | > 50 | > 100 | > 200 | > 200 |
| CO[C@@H]1[C@@H](OC(N)=O)[C@@H](O)[C@H](Oc2ccc3c(O)c(NC(=O)C(c4ccccc4)c4ccccc4)c(=O)oc3c2C)OC1(C)C [Compound 5] |  |  |  |  |  |  |  |  | > 300 | > 100 | 80 (≈ 49.5 µg/mL) | > 100 | > 50 | > 100 | > 200 | > 200 |
| CO[C@@H]1[C@@H](OC(N)=O)[C@@H](O)[C@H](Oc2ccc3c(O)c(NC(=O)c4cc5ccccc5o4)c(=O)oc3c2C)OC1(C)C [Compound 6] |  |  |  |  |  |  |  |  | > 300 | 88 (≈ 50 µg/mL) | 88 (≈ 50 µg/mL) | > 100 | > 50 | > 100 | > 200 | > 200 |
| COc1ccc(C(=O)Nc2c(O)c3ccc(O[C@@H]4OC(C)(C)[C@H](OC)[C@@H](OC(N)=O)[C@H]4O)c(C)c3oc2=O)cc1 [Compound 7] |  |  |  |  |  |  |  |  | > 300 | 45 (≈ 25.1 µg/mL) | 45 (≈ 25.1 µg/mL) | > 100 | > 50 | > 100 | > 200 | > 200 |
| CO[C@@H]1[C@@H](OC(N)=O)[C@@H](O)[C@H](Oc2ccc3c(O)c(NC(=O)c4ccc(C)o4)c(=O)oc3c2C)OC1(C)C [Compound 12] | >300 |  |  |  |  |  |  |  |  |  |  |  |  |  |  |  |
| CO[C@@H]1[C@@H](OC(N)=O)[C@@H](O)[C@H](Oc2ccc3c(O)c(NC(=O)c4cccc(-c5cn[nH]c5)c4)c(=O)oc3c2C)OC1(C)C [Compound 18] | >300 |  |  |  |  |  |  |  |  |  |  |  |  |  |  |  |
| COC1[C@H](OC(N)=O)C(O)[C@H](Oc2ccc3c(O)c(N)c(=O)oc3c2C)OC1(C)C (stereo partly shown) [Compound 19, novenamine hydrochloride] |  |  |  |  |  |  |  |  | > 300 |  |  |  |  |  |  |  |
